Measurements as given in US20040176368A1, “Pesticidal composition” (Sumitomo Chemical Company, Limited, priority 2003, published 2004).

Tested on: German cockroaches (Blattlla germanica)
Assay: Spray test on German cockroaches in glass box (Test example 1)
Type: in vivo
Conditions: 4.2 ml sprayed, 10 min exposure, observed 4 days thereafter
Procedure: Two grams (2 g) of each of Indoxacarb MP and Imiprothrin are mixed with 98 g of a mixture of xylene/Sorpol SM200X (surfactant produced by Toho Chemical)=85/15 to give each formulation of Indoxacarb MP and Imiprothrin. The formulations for the following tests are produced by mixing the Indoxacarb MP formulation with the Imiprothrin formulation at the designated ratio. The formulations for the tests are diluted with water to the designated concentration to give the preparations for the test.
Into the glass box, 4.2 ml of the preparation obtained above were sprayed with a spray gun. Ten minutes after spraying, the cockroaches were transferred to a plastic container and were provided with food and water. The mortality of the cockroaches was observed 4 days thereafter.

Row | SMILES | Mortality (%) (concentration of the preparation 0.4 % by weight) | Mortality (%) (concentration of the preparation 0.5 % by weight)
1 | C#CCN1CC(=O)N(COC(=O)C2C(C=C(C)C)C2(C)C)C1=O (mixture of isomers) [Imiprothrin, 2,5-dioxo-3-prop-2-ynylimidazolidin-1-ylmethyl (1R)-trans,cis-2,2-dimethyl-3-(2-methylprop-1-enyl)cyclopropanecarboxylate] | 0% | 
2 | COC(=O)N(C(=O)N1COC2(C(=O)OC)Cc3cc(Cl)ccc3C2=N1)c1ccc(OC(F)(F)F)cc1 (racemic) [Indoxacarb MP, methyl (RS)-7-chloro-2,5-dihydro-2-[[(methoxycarbonyl)[4-(trifluoromethoxy)phenyl]amino]carbornyl]indeno[1,2-e][1,3,4]oxadiazine-4a(3H)-carboxylate] |  | 25%
